In US4676822A, “Fluid fertilizers containing thiophosphoryl triamide” (Tennessee Valley Authority, priority 1986, dated 1987):
“And” between values parts separate entries of the source, which are not always exact repeats. Equal values may be shown once. Read-outs that look alike come from different tables or passages of the source.

Tests used:
[1] = system: urease; conditions: prior art; cited from earlier work
[2] = system: urease; assay: Urease inhibition tests with TPTA and PPDA in fluid fertilizers, banded soil system (urease-active Hastings silt loam); assay type: biochemical; conditions: for average % urea unhydrolyzed, 3 days / % urea unhydrolyzed, 3 days: 3 days incubation at 25° C.; for average % urea unhydrolyzed, 3 days / average % urea unhydrolyzed, 6 days: average of A and B samples; for % urea unhydrolyzed, 3 days / % urea unhydrolyzed, 6 days: single sample; for average % urea unhydrolyzed, 6 days / % urea unhydrolyzed, 6 days: 6 days incubation at 25° C.
Description: Samples of UAN (31-0-0), 1 g, and (36-0-0), 0.66 g containing approximately 0.38 g urea and 0.041 g of TPTA were prepared by dissolving solid TPTA in 31-0-0 and 36-0-0 of the compositions shown in Table I, supra. Identical samples containing PPDA and without either inhibitor were prepared to serve as references for purposes of data comparison.
Urease-active soil (Hastings silt loam) was moistened to a moisture content of 20 percent and preincubated at room temperature for two days. Plexiglass containers (6×6×6 cm) were one-half filled with soil and packed to a bulk density of 1.0 g/cm^3. The 31-0-0 and 36-0-0 samples containing TPTA and PPDA as well as samples containing no inhibitor were distributed evenly in a narrow band 6 cm along the soil surface. The containers were filled with soil and again packed to a bulk density of 1.0 g/cm^3. The containers were incubated at 25° C. for the desired reaction period. After incubation the soil from each container was thoroughly mixed, and a 10-g sample was extracted with 100 mL of 2M KCl containing 5 ppm phenylmercuric acetate to prevent urea hydrolysis during handling [L. A. Douglass and J. M. Bremner, Soil Sci. Soc. Am. Proc. 34, 859-862 (1970)]. The urea in the extracts was determined colorimetrically as a measure of unhydrolyzed urea. The results of three-day and six-day incubation tests are illustrated in Table II infra; and as noted supra, plotted in FIG. 1.

[3] = 25° C., cited from earlier work; for first-order reaction half-life: UAN (31-0-0)
[4] = solid mixtures with urea, 25° C.; cited from earlier work
[5] = 25° C., water partial pressure 12.73 mm of Hg; cited from earlier work
[6] = compared with PPDA; cited from earlier work

NP(N)(=O)O [DAPA, diamidophosphoric acid]
urease inhibition (in words) [1]: are urease inhibitors

NP(=O)(O)O [MAPA, monoamido phosphoric acid]
urease inhibition (in words) [1]: are urease inhibitors

NP(N)(=O)Oc1ccccc1 [PPDA, phenyl phosphorodiamidate, reference compound]
average % urea unhydrolyzed, 3 days ([2]; UAN (31-0-0)): 83.36%
% urea unhydrolyzed, 3 days ([2]; UAN (31-0-0)): 83.64% and 83.09%
average % urea unhydrolyzed, 6 days ([2]; UAN (31-0-0)): 12.61%
% urea unhydrolyzed, 6 days ([2]; UAN (31-0-0)): 14.03% and 11.20%
average % urea unhydrolyzed, 3 days ([2]; UAN (36-0-0)): 85.73% and 84%
% urea unhydrolyzed, 3 days ([2]; UAN (36-0-0)): 86.22% and 81.24%
average % urea unhydrolyzed, 6 days ([2]; UAN (36-0-0)): 11.32% and 11%
% urea unhydrolyzed, 6 days ([2]; UAN (36-0-0)): 12.10% and 10.53%
first-order reaction half-life ([3]; pH 6.46): 6.1 days
first-order reaction half-life ([3]; pH 8.14): 1.2 days
decomposition rate constant ([3]; UAN (36-0-0) saturated with PPDA): 10.2 percent decomposition per day
decomposition rate constant ([3]; UAS (29-0-0-5S) saturated with PPDA): 20.5 percent decomposition per day
urease inhibition (in words) [1]: extremely potent inhibitor of urease activity
half-life of PPDA in mixtures with urea [4]: 0.9 years

NP(N)(N)=O [PTA, phosphoryl triamide]
reaction half-life in solid mixtures with urea [5]: 4.3 h
stability in urea melt [6]: much less stable in urea melt than PPDA
